The values that follow come from PubChem BioAssay AID192 (DTP/NCI, 2004).

The subject of this assay is BDF1 mice, B16 melanoma ip, median survival T/C. Nature of the assay: NCI In Vivo Anticancer Drug Screen. Data for tumor model B16 Melanoma (intraperitoneal) in B6D2F1 (BDF1) mice. Particulars: endpoint: median survival time, higher = longer survival. An outline of the steps: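 The ratio T/C compares compound-treated mice with vehicle-treated controls, using survival or tumor size as the endpoint in a transplantable tumor model.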

[1] abbreviates: dose: 100.0 mg/kg/injection, schedule: Q01DX009 (ip), vehicle: saline.
[2] abbreviates: dose: 25.0 mg/kg/injection, schedule: Q01DX009 (ip), vehicle: saline with Tween-80.
Where [3] appears, read: dose: 50.0 mg/kg/injection, schedule: Q01DX009 (ip), vehicle: saline with Tween-80.
[4] abbreviates: dose: 100.0 mg/kg/injection, schedule: Q01DX009 (ip), vehicle: saline with Tween-80.
Setting [5] is: dose: 200.0 mg/kg/injection, schedule: Q01DX009 (ip), vehicle: saline with Tween-80.
[6] abbreviates: dose: 100.0 mg/kg/injection, schedule: Q01DX009 (ip), vehicle: Klucel (hydroxypropylcellulose) (HPC).
Where [7] appears, read: dose: 200.0 mg/kg/injection, schedule: Q01DX009 (ip), vehicle: Klucel (hydroxypropylcellulose) (HPC).
[8] abbreviates: dose: 100.0 mg/kg/injection, schedule: Q04DX003 (ip), vehicle: Klucel (hydroxypropylcellulose) (HPC).
The mark [9] stands for this setting: dose: 200.0 mg/kg/injection, schedule: Q04DX003 (ip), vehicle: Klucel (hydroxypropylcellulose) (HPC).

Values joined by “and” are separate entries in the source; they are usually repeats but may differ in a detail not shown here. Equal entries are not always repeated. Inconclusive results and toxic doses are left out. Peptide text beside a SMILES is read from it. * marks the point of attachment. Cbz = O=C(OCc1ccccc1)*

`OC(c1ccccc1)(c1ccccc1)C1CC1c1ccncc1` (stereo unspecified): the T/C (dose: 12.5 mg/kg/injection, schedule: Q01DX009 (ip), vehicle: saline) was 113 % of control; the T/C (dose: 25.0 mg/kg/injection, schedule: Q01DX009 (ip), vehicle: saline) was 95 % of control; the T/C (dose: 50.0 mg/kg/injection, schedule: Q01DX009 (ip), vehicle: saline) was 102 % of control; the T/C under setting [1] was 107 % of control.
Consider `CCCC(C)c1ccccc1O` (stereo unspecified), for which the T/C is 108 % of control under setting [2], 108 % of control under setting [3] and 92 % of control under setting [4].
In the case of `O=C1c2cccnc2C(=O)c2c(O)ccc(O)c21`, the T/C by setting is: under setting [2], 92 % of control; under setting [3], 103 % of control; under setting [4], 112 % of control; under setting [5], 89 % of control.
Consider `C=C1C(=O)O[C@@H]2/C=C(/C)[C@@]3(O)C=C[C@](C)(C[C@@H](OC(=O)/C(=C\C)COC(C)=O)[C@@H]12)O3`, for which the T/C (dose: 0.03 mg/kg/injection, schedule: Q01DX009 (ip), vehicle: carboxymethylcellulose (CMC)) is 99 % of control; the T/C (dose: 0.12 mg/kg/injection, schedule: Q01DX009 (ip), vehicle: carboxymethylcellulose (CMC)) was 102 % of control; the T/C (dose: 0.25 mg/kg/injection, schedule: Q01DX009 (ip), vehicle: carboxymethylcellulose (CMC)) is 97 % of control; the T/C (dose: 6.0 mg/kg/injection, schedule: Q01DX009 (ip), vehicle: saline with Tween-80) was 99 % of control; the T/C (dose: 8.0 mg/kg/injection, schedule: Q01DX009 (ip), vehicle: saline with Tween-80) is 105 % of control; the T/C (dose: 12.0 mg/kg/injection, schedule: Q01DX009 (ip), vehicle: saline with Tween-80) was 109 % of control. Besides, the T/C (dose: 18.0 mg/kg/injection, schedule: Q01DX009 (ip), vehicle: saline with Tween-80) was 92 % of control.
As for `CNC(C)C1(O)Cc2c(O)c3c(c(O)c2C(OC2CC(N)C(O)C(C)O2)C1)C(=O)c1c(OC)cccc1C3=O` (stereo unspecified), the T/C was 108 % of control (dose: 0.5 mg/kg/injection, schedule: Q01DX009 (ip), vehicle: water); 112 % of control (dose: 1.0 mg/kg/injection, schedule: Q01DX009 (ip), vehicle: water); 163 % of control (dose: 4.0 mg/kg/injection, schedule: Q01DX009 (ip), vehicle: water); 172 % of control (dose: 8.0 mg/kg/injection, schedule: Q01DX009 (ip), vehicle: water).
As for `O=c1oc(-c2cccc([N+](=O)[O-])c2)nc2ccccc12`, the T/C by setting is: (dose: 50.0 mg/kg/injection, schedule: Q01DX009 (ip), vehicle: Klucel (hydroxypropylcellulose) (HPC)) 106 % of control; under setting [6], 86 % of control.
Regarding `COC(=O)CCC1=C(C)c2cc3[n-]c(cc4nc(cc5[n-]c(cc1n2)c(CCC(=O)OC)c5C)C=C4C)cc3C.[Ni+2]`, the T/C by setting is: (dose: 1.56 mg/kg/injection, schedule: Q01DX009 (ip), vehicle: saline with Tween-80) 91 % of control; (dose: 3.13 mg/kg/injection, schedule: Q01DX009 (ip), vehicle: saline with Tween-80) 88 % of control; (dose: 6.25 mg/kg/injection, schedule: Q01DX009 (ip), vehicle: saline with Tween-80) 86 % of control.
`NC(=O)NNc1ccc([N+](=O)[O-])cc1[N+](=O)[O-]`: the T/C was 95 % of control (dose: 12.5 mg/kg/injection, schedule: Q01DX009 (ip), vehicle: saline with Tween-80); 97 % of control under setting [2]; 97 % of control under setting [3].
Turning to `CCN(C(=O)Nc1ccccc1Cl)c1ccccc1`, the T/C by setting is: (dose: 100.0 mg/kg/injection, schedule: Q04DX003 (ip), vehicle: saline with Tween-80) 94 % of control; (dose: 200.0 mg/kg/injection, schedule: Q04DX003 (ip), vehicle: saline with Tween-80) 100 % of control; (dose: 400.0 mg/kg/injection, schedule: Q04DX003 (ip), vehicle: saline with Tween-80) 91 % of control.
For `CCOC(=O)NNC(N)=S`, the T/C is 100 % of control under setting [6]; 93 % of control under setting [7]; 93 % of control (dose: 400.0 mg/kg/injection, schedule: Q01DX009 (ip), vehicle: Klucel (hydroxypropylcellulose) (HPC)).
In the case of `COc1ccc(C(=O)/C=C/c2ccc3c(c2)OCO3)cc1OC`, the T/C is 96 % of control under setting [6] and 93 % of control under setting [7].
As to `Cc1c[n+]2ccccc2n1C`, the T/C is 99 % of control and 100 % of control under setting [2]; 94 % of control and 96 % of control under setting [3]; 93 % of control and 94 % of control under setting [4].
Consider `O=C(NC(Cc1ccccc1)C(=O)NC(Cc1ccc(O)cc1)C(=O)O)OCc1ccccc1` (stereo not drawn) (Cbz-Phe-Tyr-OH; configuration not given here), for which the T/C under setting [3] is 105 % of control and the T/C under setting [4] is 86 % of control.
Regarding `Cc1ccc(S(=O)(=O)N2CCCC(=O)c3ccc(Cl)cc32)cc1`, the T/C runs as follows: under setting [8], 103 % of control; under setting [9], 99 % of control; (dose: 400.0 mg/kg/injection, schedule: Q04DX003 (ip), vehicle: Klucel (hydroxypropylcellulose) (HPC)) 99 % of control.
As for `COc1ccc(-c2ccc(OC)c(OC)c2OC)c(N)c1`, the T/C was 107 % of control under setting [4]; 107 % of control under setting [5]; 94 % of control (dose: 400.0 mg/kg/injection, schedule: Q01DX009 (ip), vehicle: saline with Tween-80).
Turning to `C[C@]12CCC(=O)C=C1[C@@H](F)C[C@@H]1[C@@H]2[C@@H](O)C[C@@]2(C)[C@H]1CC[C@]2(O)C(=O)CO`, the T/C (dose: 25.0 mg/kg/injection, schedule: Q01DX009 (sc), vehicle: steriod suspending solution) was 95 % of control; the T/C (dose: 50.0 mg/kg/injection, schedule: Q01DX009 (sc), vehicle: steriod suspending solution) was 97 % of control; the T/C (dose: 100.0 mg/kg/injection, schedule: Q01DX009 (sc), vehicle: steriod suspending solution) is 101 % of control.
Regarding `O=[N+]([O-])C(CO)(CO)CO`, the T/C by setting is: (dose: 100.0 mg/kg/injection, schedule: Q04DX003 (ip), vehicle: saline) 110 % of control; (dose: 200.0 mg/kg/injection, schedule: Q04DX003 (ip), vehicle: saline) 110 % of control; (dose: 400.0 mg/kg/injection, schedule: Q04DX003 (ip), vehicle: saline) 96 % of control.
As for `CCCCCCCCCCCCCCCCN(C)S(=O)(=O)c1ccc2sc(SC)[n+](C)c2c1` (tested in a mixture with another compound), the T/C reads like this: (dose: 12.5 mg/kg/injection, schedule: Q04DX003 (ip), vehicle: saline with Tween-80) 100 % of control; (dose: 25.0 mg/kg/injection, schedule: Q04DX003 (ip), vehicle: saline with Tween-80) 100 % of control.
`Cc1ccc2[nH]c(=O)oc(=O)c2c1`: the T/C was 98 % of control (dose: 50.0 mg/kg/injection, schedule: Q04DX003 (ip), vehicle: Klucel (hydroxypropylcellulose) (HPC)); 96 % of control under setting [8]; 93 % of control under setting [9].
With `CNC=O`, the T/C is 99 % of control under setting [1] and 110 % of control (dose: 200.0 mg/kg/injection, schedule: Q01DX009 (ip), vehicle: saline).
For `CCCCNC(=O)Nc1ccc(CC)cc1`, the T/C under setting [6] is 100 % of control and the T/C under setting [7] was 91 % of control.
For the compound `O=C1C(NCCO)=C(N2CC2)C(=O)C(NCCO)=C1N1CC1`, the T/C (dose: 0.19 mg/kg/injection, schedule: Q01DX009 (ip), vehicle: saline) was 165 % of control and 202 % of control; the T/C (dose: 0.37 mg/kg/injection, schedule: Q01DX009 (ip), vehicle: saline) was 161 % of control; the T/C (dose: 0.38 mg/kg/injection, schedule: Q01DX009 (ip), vehicle: saline) was 191 % of control and 236 % of control; the T/C (dose: 0.75 mg/kg/injection, schedule: Q01DX009 (ip), vehicle: saline) is 221 % of control.
Consider `Cc1ccc(NS(=O)(=O)c2ccc(Cl)cc2)cc1Cl`, for which the T/C by setting is: under setting [2], 99 % of control; under setting [3], 99 % of control; under setting [4], 95 % of control.
As for `NC1=NC(=S)C2N=C(N=Nc3ccc(C(=O)NC(CCC(=O)O)C(=O)O)cc3)N=C2N1` (stereo unspecified), the T/C by setting is: (dose: 0.09 mg/kg/injection, schedule: Q01DX009 (ip), vehicle: Klucel (hydroxypropylcellulose) (HPC)) 100 % of control; (dose: 0.19 mg/kg/injection, schedule: Q01DX009 (ip), vehicle: Klucel (hydroxypropylcellulose) (HPC)) 107 % of control; (dose: 0.39 mg/kg/injection, schedule: Q01DX009 (ip), vehicle: Klucel (hydroxypropylcellulose) (HPC)) 111 % of control; (dose: 0.78 mg/kg/injection, schedule: Q01DX009 (ip), vehicle: Klucel (hydroxypropylcellulose) (HPC)) 107 % of control; (dose: 1.56 mg/kg/injection, schedule: Q01DX009 (ip), vehicle: Klucel (hydroxypropylcellulose) (HPC)) 89 % of control.
